According to US6552073B1, “Compounds and methods of treating cell proliferative diseases” (Exonhit Therapeutics SA, priority 2002, dated 2003):
Entries after “also recorded” stand apart in the source; their conditions may differ.

Tests used:
NIH3T3 = assay: Cytoskeleton analysis, actin staining; format: cell-based, mouse; set-up: key to Cell architecture modification, actin staining NIH3T3, ruffles (R) / Cell architecture modification, actin staining NIH3T3, focal complexes (FC): a decrease in cellular ruffles density was noted R−; an increase in focal complexes density was noted FC+
Procedure: (§1) Since major rearrangements of cytoskeleton are observed in tumor cells and since the small GTPases are known to regulate these events, analysis of actin cytoskeleton was performed. Subconfluent cells seeded onto coverslips were treated with different concentration of compound (1, 10, 17.5, 25 and 50 μM) or vehicle for 24 h, before being fixed in 4% formaldehyde for 15 min., permeabilized in 0.2% Triton X100 for 5 minutes and incubated in PowerBlock (Biogenex) for 10 min. Actin filaments were stained with 0.5 μg/ml fluorescein isothiocyanate (FITC)-labelled phalloidin for 1 hour. Analysis was performed using an inverted fluorescent microscope.

MDA-MB-231 cells = assay: Matrigel invasion assay (Boyden chamber); format: cell-based, human; settings: MDA-MB-231 cells
Procedure: d) Migration and Matrigel Invasion Assay
Chemoinvasion assay was performed in Boyden chamber as described by Albini et al (Cancer Res, 1987) with some modifications. Polycarbonate membranes with 8μm pores were coated with matrigel (125 μg/cm^2) at room temperature for 48 h. Two hours before experiments, the matrix was […] with serum-free medium containing 0.1% BSA.
One day after seeding, 10^6 MDA-MB-231 cells were treated overnight with different concentrations of compounds (1, 10, 17.5, 25 and 50 μM). Cells were collected with Versene (Invitrogen), counted with trypan blue exclusion, rinsed twice in serum-free medium containing 0.1% BSA and resuspended in serum-free medium containing 0.1% BSA plus the appropriate concentration of compound. 10^5 treated cells were placed in the upper chamber. Medium containing 10% of FBS plus the appropriate concentration of compound was placed in the lower chamber as a chemoattractant. The Boyden chamber was incubated 6 hours at 37° C. before the cells were fixed and stained with Diff-Quick (Dade-Berhing). Cells on the upper part of the filters were removed using a cotton swab. Cells on the underside of the filters were visualised and counted under light microscope. The migration assay was performed the same way, using non-coated filters.

[1] = test system: NIH3T3 cells transfected with RasV12; assay: Colony formation assay in the presence of constitutively activated Ras (RasV12); format: cell-based, mouse; set-up: key to Colony formation: −: no effect of the compound was observed; +: an effect of the compound was observed; settings: for Ras-dependent neoR clones formation: NIH3T3, RasV12; for Colony formation: NIH3T3, neoR colonies
Procedure: c) Ras/Rac-dependant Signaling Pathway Analysis
The impact of the compounds on Ras and Rac signaling pathways was analysed with two reporter systems described by Imler (Nature 1988) and Lin (Science, 1995) respectively on one hand, and by a colony formation assay in the presence of constitutively activated Ras (RasV12) and Rac (RacV12) on the other hand. For this latter experiment, fifty percent confluent NIH3T3 cells in a 10 cm diameter petri dish were transfected with 0.5 μg pSV2-RasV12 or 0.5 μg pEXV RacV12 plasmids plus 100 ng of pSV2-neomycin plasmid using Lipofectamine-Plus reagent (Invitrogen) according to the manufacturer's instructions. Forty-eight hours later, cells were trypsinised, splitted to 1/3, and incubated in the presence of complete medium supplemented with 400 μg/ml geneticin (Invitrogen) and different doses of compound (1, 10, 17.5, 25 and 50 μM) until emerging resistant clones appear (2-3 weeks). The medium was renewed every 3 days. Colonies with a minimum of 50 cells were counted after staining with Fuschin 2%.

H460 = assay: Cytoskeleton analysis, actin staining; format: cell-based, human
Procedure: as §1

HCT116 = assay: Cytoskeleton analysis, actin staining; format: cell-based, human
Procedure: as §1

MMP-2 = assay: Gelatin zymography; format: cell-based, human; settings: zymogram gel, MDA-MB-231 supernatant
Procedure: (§2) The activity of the metalloproteases MMP-2 and MMP-9 was assayed using gelatinolytic zymography according to Lambert (Surgery 1997). Briefly, MDA-MB-231 cells were incubated overnight in serum-free medium supplemented with ITS liquid supplement (Sigma) with different concentrations of compound (1, 10, 17.5, 25 and 50 μM). Supematant was collected and concentrated with Ultrafree 30 kDA (Millipore). Equal amount of proteins, as determined by Bradford measurement, were loaded onto a 10% w/v polyacrylamide gel containing 1% gelatin and 0.1% SDS (Novex). After electrophoresis, gels were washed in Novex Zymogram Renaturing buffer for 30 min at room temperature and incubated overnight at 37° C. in Novex Zymogram developing buffer. Gels were stained in Coomassie Brilliant Blue G-250, and the gelatinolytic activity was visualized as a clear band against the blue background of the stained gelatin.

MMP-9 = assay: Gelatin zymography; format: cell-based, human; settings: zymogram gel, MDA-MB-231 supernatant
Procedure: as §2

MDA231 = assay: Cytoskeleton analysis, actin staining; format: cell-based, human
Procedure: as §1

Structure (SMILES)	Cell architecture modification, actin staining NIH3T3, focal complexes (FC) (NIH3T3)	Cell architecture modification, actin staining NIH3T3, ruffles (R) (NIH3T3)	concentration at which an increase in invasive properties was noted (MDA-MB-231 cells) [µM]	Ras-dependent neoR clones formation [1]	Colony formation [1]	Cell architecture modification, actin staining H460, general observation (H460)	Cell architecture modification, actin staining HCT116, general observation (HCT116)	concentration of dose-dependant inhibition of MMP-2 (MMP-2) [µM]	concentration of dose-dependant inhibition of MMP-9 (MMP-9) [µM]	melting point [°C]	Cell architecture modification, actin staining MDA231, general observation (MDA231)
CCCc1ccccc1OCCCCCOc1coc(CO)cc1=O [EH18900, 5-[5-(2-Propylphenyloxy)pentyloxy]-2-(hydroxymethyl)-4H-pyran-4-one]	FC+	R−	50	inhibited	+	cell spreading	cell spreading				
CCCc1c(OCCCCCOc2coc(CO)cc2=O)ccc(Cl)c1Cl [EH22900, 5-[5-(3,4-Dichloro-2-propylphenyloxy)pentyloxy]-2-(hydroxymethyl)-4H-pyran-4-one]	FC+	R−		inhibited	+			5	5	85 to 86	increased MDA-MB-231 spreading; also recorded: cell spreading
